Test results taken from US5977169A, “Substituted tetronic acids useful for treating HIV and other retroviruses” (priority 1997, dated 1999).

Target: T1, HIV-1 protease (Human immunodeficiency virus type 1 group M subtype B, UniProt P04585)
T1 construct: The protease (or proteinase) enzyme, consisting of only 99 amino acids
Assay: In vitro HIV protease inhibitory assay (fluorescently labeled substrate, avidin-polystyrene particles)
Format: biochemical
Details: for inhibition at 3.3 µM: HIV-1 dose 3.3 μM; for inhibition at 10 µM: HIV-1 dose 10.0 μM; for inhibition at 30 µM: HIV-1 dose 30.0 μM; for inhibition at 1.1 µM: HIV-1 dose 1.1 μM; for inhibition at 0.12 µM: HIV-1 dose 0.12 μM; for inhibition at 0.37 µM: HIV-1 dose 0.37 μM
Protocol: The HIV protease screening assay is based on a fluorescently labeled substrate which can be resolved from nonlabeled cleavage product using avidin-polystyrene particles, 0.7-0.9 μm. The substrate is biotinylated at the amino terminal arginine and fluorescently labeled with fluorescein isothiocynate (FITC) at the carboxyl terminal lysine. This assay has been employed to detect novel, nonpeptidic inhibitors of HIV-1 protease. Substrate (20 μl of 0.2 μM), sample (10 μl of desired concentraion), and enzyme (10 μl of 0.1 μM) are added to a 96 well pandex plate. The assay is run in 0.1 M sodium acetate buffer at pH 5.5 in the presence of 1.0 M sodium chloride and 0.05% NP-40 and incubated in the dark for one hour at room temperature. Avidin coated polystyrene beads (40 μl of 0.1% (w/v)) are added and the incubation is continued in the dark for an additional half hour. The labeled cleavage product is separated from the unreacted substrate via filtration and is read on the IDEXX Screen Machine. (IDEXX Corporation--Portland, Me.) The data are analyzed by appropriate computer algorithms to ascertain percent inhibition values.
The Activity Table showing the results of the HIV Protease Inhibitory Assay appears below in TABLE 1. The table has three columns, the left column provides the code number of the compound for easy cross reference to structure tables and detailed procedures, the middle column provides the concentration of test compound and the column on the right provides the percent inhibition.

| inhibition at 3.3 µM | inhibition at 10 µM | inhibition at 30 µM | SMILES | other results |
| --- | --- | --- | --- | --- |
| 97.4% | 96.9% | 101% | CCCC1(CCC)OC(=O)C(C(c2cccc(NS(=O)(=O)c3ccc(C#N)cc3)c2)C2CCCC2)=C1O (stereo not shown) [IX-41] |  |
|  |  |  | O=C1OC2(CCCCC2CCc2ccccc2)C(O)=C1C(c1ccccc1)C1CC1 (stereo not shown) [IX-5, 1-Oxaspiro[4.5]dec-3-en-2-one, 3-(cyclo-propylphenylmethyl)-4-hydroxy--6-(2-phenylethyl)-] | HIV-1 Protease % Inhibition (test compound concentration 3.3 μM): 91.93%; HIV-1 Protease % Inhibition (test compound concentration 10.0 μM): 95.68%; HIV-1 Protease % Inhibition (test compound concentration 30.0 μM): 92.9% |
| 112% | 104% | 91.5% | CC1(CCCc2ccccc2)OC(=O)C(C(c2ccccc2)C2CC2)=C1O (stereo not shown) [DX-10, 2(5H)-Furanone, 3-(cyclopropylphenylmethyl)-4-hydroxy-5-methyl-5-(3-phenyl-propyl)-] |  |
| 85.9% | 99.2% | 113% | CCC/C=C1\OC(=O)C(C(c2ccccc2)C2CC2)=C1O (stereo not shown) [JX-4, 5-Butylidene-3-(cyclopropyl-phenyl-methyl)-4-hydroxy-5H-furan-2-one] |  |
| 108% | 104% | 106% | CCCC1(CCC)OC(=O)C(C(c2cccc(NS(=O)(=O)c3nnnn3-c3ccccc3)c2)C2CC2)=C1O (stereo not shown) [IX-50] |  |
|  | 61.1% |  | CCCC1OC(=O)C(C(c2ccccc2)C2CC2)=C1O (stereo not shown) [BX-4, 2(5H)-Furanone, 3-(cyclopropylphenylmethyl)-4-hydroxy-5-propyl-] | inhibition at 1 µM (HIV-1 dose 1.0 μM): < 10%; inhibition at 100 µM (HIV-1 dose 100.0 μM): 83.3% |
| 94.5% | 98.2% | 104% | CC1(Cc2ccccc2)OC(=O)C(C(c2ccccc2)C2CC2)=C1O (stereo not shown) [DX-2, 2(5H)-Furanone, 3-(cyclopropylphenylmethyl)-4-hydroxy-5-methyl-5-(phenyl-methyl)-] |  |
|  | 104% | 110% | O=C1OC2(CCCCCCC2)C(O)=C1C(c1ccccc1)C1CC1 (stereo not shown) [CX-2, 1-Oxaspiro[4.7]dodec-3-en-2-one, 3-(cyclopropylphenylmethyl)-4-hydroxy-] | inhibition at 1.1 µM: 96% |
| 104% | 101% | 91.8% | CCCC1(CCC)OC(=O)C(C(CC)c2cccc(NS(=O)(=O)c3ccccc3)c2)=C1O (stereo not shown) [IX-20, Benzenesulfonamide, N-(3-(1-(2,5-dihydro-4-hydroxy-2-oxo--5,5-dipropyl-3-furanyl)propyl)phenyl)-] |  |
| 102% | 125% | 106% | CCCC1(CCC)OC(=O)C(C(c2cccc(NS(=O)(=O)c3cccc4cccnc34)c2)C2CC2)=C1O (stereo not shown) [IX-18] |  |
|  |  |  | CCCC1(CCC)OC(=O)C(C(c2cccc(NS(=O)(=O)c3ccccc3)c2)C2CC2)=C1O (stereo not shown) [IX-15, Benzenesulfonamide, N-(3-(cyclopropyl(1,5-dihydro-4-hydroxy-2-oxo-5,5-dipropyl-3-furanyl)methyl)phenyl)-] | inhibition at 0.12 µM: 94%; inhibition at 0.37 µM: 102%; inhibition at 1.1 µM: 104% |
| 43.2% | 65.3% | 96.3% | CC/C=C1\OC(=O)C(C(c2ccccc2)C2CC2)=C1O (stereo not shown) [JX-3, 3-(Cyclopropyl-phenyl-methyl)-4-hydroxy-5-propylidene-5H-furan-2-one] |  |
| 101% | 111% | 105% | CCC1(CCCc2ccccc2)OC(=O)C(C(c2ccccc2)C2CC2)=C1O (stereo not shown) [DX-11, 2(5H)-Furanone, 3-(cyclopropylphenylmethyl)-5-ethyl-4-hydroxy-5-(3-phenyl-propyl)-] |  |
| 78.8% | 89.9% | 100% | CC(C)(C)OC(=O)N1CCC2(CC1)OC(=O)C(C(c1ccccc1)C1CC1)=C2O (stereo not shown) [OX-1, 3-(Cyclopropyl-phenyl-methyl)-4-hydroxy-2-oXo-1-oca-8-aza-spiro[4.5]dec-3-ene-8-carboxylic acid tert-butyl ester] |  |
| 91.9% | 99.7% | 103% | CCC(c1ccccc1)C1OC(=O)C(C(c2ccccc2)C2CC2)=C1O (stereo not shown) [GX-6, 2(5H)-Furanone, 3-(cyclopropylphenylmethyl)-4-hydroxy-5-(1-phenylpropyl)-] |  |
| 94.5% | 94.7% | 89.1% | CCCC1(CCC)OC(=O)C(C(c2ccccc2)c2cccc(NS(=O)(=O)c3cn(C)cn3)c2)=C1O (stereo not shown) [IX-48, 1H-Imidazole-4-sulfonamide, N-(3-((5,5-dipropyl-4-hydroxy-2-oxo-2,5-dihydro-3 furanyl)-phenyl-methyl)phenyl)-1-methyl-] |  |
| 99.2% | 100% | 96.7% | CCCC1(CCC)OC(=O)C(C(c2cccc(NS(=O)(=O)c3nccn3C)c2)C2CC2)=C1O (stereo not shown) [IX-37, 1-Methyl-1H-imidazole-2-sulfonamide, N-(3-(cyclopropyl(2,5-dihydro-4-hydroxy-2-oxo-5,5-dipropyl-3-furanyl)methyl)phenyl)-] |  |
| 51% | 73.3% | 78.2% | O=C1OC(C(O)CCc2ccccc2)C(O)=C1C(c1ccccc1)C1CC1 (stereo not shown) [BX-8, 2(5H)-Furanone, 3-(cyclopropylphenylmethyl)-4-hydroxy-5-(1-hydroxy-3--phenylpropyl)-] |  |
|  |  |  | O=C1OC(CCCc2ccccc2)(CC2CC2)C(O)=C1C(c1ccccc1)C1CC1 (stereo not shown) [DX-14] | inhibition at 0.123 µM (HIV-1 dose 0.123 μM): 89.2%; inhibition at 0.37 µM: 104% |
| 14.9% | 34.1% | 59% | O=C1OC2(CCNCC2)C(O)=C1C(c1ccccc1)C1CC1 (stereo not shown) [OX-2, 3-(Cyclopropyl-phenyl-methy1)-4-hydroxy--1-oXa-8-aza-spiro[4.5]dec-3-en-2-one] |  |
| 114% | 109% | 103% | CCCC1(CCc2ccccc2)OC(=O)C(C(c2ccccc2)C2CC2)=C1O (stereo not shown) [DX-8, 2(5H)-Furanone, 3-(cyclopropylphenylmethyl)-4-hydroxy-5-(2-phenyl-ethyl)-5-propyl-] |  |
| 74.6% | 89.2% | 74% | CCCCC(CCc1ccccc1)C1OC(=O)C(C(c2ccccc2)C2CC2)=C1O (single isomer, unassigned) [GX-1, 2(5H)-Furanone, 3-(cyclopropylphenylmethyl)-4-hydroxy-5-(1-(2-phenyl-ethyl)pentyl)-] |  |
|  |  |  | CC(C)CC1(CCCc2ccccc2)OC(=O)C(C(c2ccccc2)C2CC2)=C1O (stereo not shown) [DX-20, 2(5H)-Furanone, 3-(cyclopropylphenylmethy)-4-hydroxy-5-(2-methylpropyl)-5--(3-phenylpropyl)-] | inhibition at 0.12 µM: 29.2%; inhibition at 0.37 µM: 71.5%; inhibition at 1.1 µM: 90.3% |
| 100% | 106% | 111% | CCCC1(CCC)OC(=O)C(C(c2cccc(NC(=O)OCc3ccccc3)c2)C2CC2)=C1O (stereo not shown) [IX-32, Carbamic acid, (3-(cyclopropyl(2,5-dihydro-4-hydroxy-2-oxo-5,5-dipropyl-3-furanyl)methyl)phenyl)-, phenylmethyl ester] |  |
| 62.1% | 90.9% |  | COC(=O)CC(CCc1ccccc1)C1OC(=O)C(C(c2ccccc2)C2CC2)=C1O (stereo not drawn) [HX-1, 2-Furanpropanoic acid, 4-(cyclopropylphenyl-methyl)-2,5-dihydro-3-hydroxy-5--oxo-β-(2-phenylethyl)-, methyl ester] | inhibition at 1.1 µM: 37.6% |
| 85% | 102% | 106% | O=C1OC(CCCc2ccccc2)(CCCc2ccccc2)C(O)=C1C(c1ccccc1)C1CC1 (stereo not shown) [DX-13, 2(5H)-Furanone, 3-(cyclopropylphenylmethyl)-4-hydroxy-5,5-bis(3-phenyl-propyl)-] |  |
|  |  |  | O=C1OC(C(CCO)CCc2ccccc2)C(O)=C1C(c1ccccc1)C1CC1 (stereo not shown) [HX-2, 2(5H)-Furanone, 3-(cyclopropylphenylmethyl)-4-hydroxy-5-(1-(2-hydroxyethyl)--3-phenylpropyl)-] | inhibition at 0.1 µM (HIV-1 dose 0.1 μM): < 10%; inhibition at 0.3 µM (HIV-1 dose 0.3 μM): 13.5% |
| 70.9% | 88.3% | 74.9% | CCCCC(CCc1ccccc1)C1OC(=O)C(C(c2ccccc2)C2CC2)=C1O (stereo not shown) [GX-2, 2(5H)-Furanone, 3-(cyclopropylphenylmethyl)-4-hydroxy-5-(1-(2-phenyl-ethyl)pentyl)-] |  |
| 92.7% | 103% | 102% | CCCC(c1ccccc1)C1OC(=O)C(C(c2ccccc2)C2CC2)=C1O (stereo not shown) [GX-7, 2(5H)-Furanone, 3-(cyclopropylphenylmethyl)-4-hydroxy-5-(1-phenylbutyl)-] |  |
| 125% | 128% | 116% | CCCC1(Cc2ccccc2)OC(=O)C(C(c2ccccc2)C2CC2)=C1O (stereo not shown) [DX-4, 2(5H)-Furanone, 3-(cyclopropylphenylmethyl)-4-hydroxy-5-(phenyl-methyl)-5-propyl-] |  |
